Key:
[1] = Rate of hydrolysis in porcine skin homogenate at 37° C. (HPLC or HPLC-MS); assay type: in vitro ADME; conditions: for half-life: pig; for reaction kinetics in porcine skin homogenate: in words
Procedure: (§1) To assess whether the synthesised cilazapril prodrugs undergo enzymatic cleavage, metabolic studies were carried out in three well established incubation media for the investigation of transdermal administration.
Due to its similarities with human skin, in terms of enzyme activity and distribution, a porcine skin homogenate (25% w/w in PBS-buffer, 0.65 U/ml, 1.3 mg/ml (Bradford)) was used for the metabolic studies.
(§2) Incubation mixtures were prepared by adding a respective prodrug stock solution to porcine skin homogenate (PSH), human plasma and buffered porcine liver esterase (PLE), respectively.
(§3) All samples were incubated in a water bath at 37° C. After 72 h samples of the incubation mixtures (200 μl) were collected. To all samples 400 μl of ice-cold acetonitrile were added. After vortex mixing the samples were allowed to stand in a refrigerator for approx. 30 min. The samples were then centrifuged at 13000 rpm (13000 g) for 5 min. The supernatants were collected and stored at −78° C. until HPLC analysis. To 200 μl of each supernatant 400 μl of aqueous 0.05% trifluoroacetic acid were added prior to injection.
(§4) The kinetics of the hydrolysis of the cilazapril prodrugs in the different incubation media was analysed by HPLC or HPLC-MS.
(§5) The rate of hydrolysis of cilazapril, of some cilazapril prodrugs and cilazapril ethyl ester in porcine skin homogenate, human plasma and buffered porcine liver esterase at 37° C. are presented in Table 4.

porcine liver esterase = assay: Rate of hydrolysis in buffered porcine liver esterase at 37° C. (HPLC or HPLC-MS); assay type: in vitro ADME; conditions: for half-life: pig
Procedure: as §1
(§6) Buffered porcine liver esterase (suspension in 3.2 M (NH4)2SO4 solution, pH 8, 12 mg prot./ml (Biuret), 260 U/mg prot.) was chosen as the third incubation media, because porcine liver esterase mimics the carboxylesterase present in the human skin.
as §2, §3, §4, §5

[2] = Metabolic studies in enzyme-containing incubation mixtures (porcine skin homogenate, human plasma, buffered porcine liver esterase), results in words; assay type: in vitro ADME; conditions: 37° C.; for enzymatic cleavage / hydrolysis to cilazaprilate: incubation mixtures; for degradation / reaction kinetics of enzymatic hydrolysis: enzyme-containing incubation mixtures
Procedure: as §1, §6, §2
All samples were incubated in a water bath at 37° C. […] To all samples 400 μl of ice-cold acetonitrile were added. After vortex mixing the samples were allowed to stand in a refrigerator for approx. 30 min. The samples were then centrifuged at 13000 rpm (13000 g) for 5 min. The supernatants were collected and stored at −78° C. until HPLC analysis. To 200 μl of each supernatant 400 μl of aqueous 0.05% trifluoroacetic acid were added prior to injection.
as §4

in vitro = in vitro ADME
Procedure: as §1
Human plasma (CPD plasma, 3.82 U/ml), which contains i.a. cholinesterase and acetylcholinesterase, was used as the second incubation media.
as §2, §3, §4, §5

[3] = Stability in transdermal therapeutic system (10% in BioPSA Hex 7-4302), extraction and HPLC; assay type: physicochemical; conditions: TTS
Procedure: The stability of the prodrugs in the transdermal therapeutic system was determined after different storage times and temperatures by extraction of the transdermal therapeutic system with an organic solvent and subsequent analysis by HPLC.
The stability of the cilazapril prodrugs (1) and (2) in therapeutic transdermal systems was controlled at 25° C./60% relative humidity and compared with the cilazapril in a TTS having the same adhesive layer.

[4] = Stability of 10% cilazapril in an acrylic adhesive (Durotak 87-4098, Henkel); assay type: physicochemical; conditions: 10% in acrylic adhesive Durotak 87-4098
Description: Instability in a semisolid dosage form is also a problem with cilazapril. Although cilazapril has a more rigid structure than other ACE-inhibitors and has no distinct tendency to intramolecular cyclisation, it presents stability problems in adhesive layers of transdermal therapeutic systems as shown in Table 1.

[5] = In vitro skin permeation from TTS through human skin (two-compartment diffusion cell); assay type: in vitro ADME; conditions: TTS on human skin, 32±1° C., 96 hours, FIG. 1
Procedure: Furthermore the permeability of the prodrugs through the skin was measured by in vitro skin permeation. The in vitro skin permeation of the prodrugs (1), (2) and (6) and of cilazapril through human skin was evaluated using the TTS as prepared in any one of examples 8, 9, and 11.
The flux was determined by using a two-compartment diffusion cell with a section of human skin mounted between the cell halves. A TTS was adhered to one side of the skin and a drug-receiving medium was placed on the receptor-side of the cell. The apparatus was placed in a water bath maintained at 32±1° C. Samples of the receptor medium were collected over a period of 96 hours for HPLC analysis of drug concentration.

[6] = Crystallization in the TTS; assay type: physicochemical; conditions: after 14 months
Description: Moreover, the TTSs with the prodrugs (1), (2) and (6) were examined with regard to crystallization.

[7] = porcine skin homogenate, 37° C.
[8] = 9 months, 25° C./60% relative humidity

| SMILES | enzymatic cleavage / hydrolysis to cilazaprilate [2] | assay [%] ([3]; 0 months, uncontrolled) | assay [%] [3, 8] | half-life [1, 7] | half-life (porcine liver esterase) | reaction kinetics in porcine skin homogenate [1] | degradation / reaction kinetics of enzymatic hydrolysis [2] | in vitro skin flux compared to the cilazapril TTS [5] | f50% (h), time by which 50% of total cilazaprilate has been formed (in vitro; human) | half-life (in vitro; human, plasma) | crystallization in the TTS [6] | also measured |
| --- | --- | --- | --- | --- | --- | --- | --- | --- | --- | --- | --- | --- |
| CCOC(=O)[C@H](CCc1ccccc1)N[C@H]1CCCN2CCC[C@@H](C(=O)OCC)N2C1=O [cilazapril ethyl ester, reference compound] | no hydrolysis to cilazaprilate was detectable |  |  |  |  |  |  |  |  |  |  | t1/2 [1, 7]: 0.35 h; t1/2 (porcine liver esterase): 0.69 h; enzymatic cleavage / hydrolysis to cilazaprilate ([2]; listed as ethyl ester of cilazapril): stable against enzymatic cleavage; t1/2 (in vitro; human plasma, 37° C.): 11.9 h |
| CCOC(=O)[C@H](CCc1ccccc1)N[C@H]1CCCN2CCC[C@@H](C(=O)O)N2C1=O [cilazapril, (1S,9S)-9-[[(1S)-1-ethoxycarbonyl-3-phenylpropyl]amino]octahydro-10-oxo-6H-pyridazino[1,2-a][1,2]diazepine-1-carboxylic acid, reference compound] |  | 99.8% | 97.0% | 9.4 h | 3.3 h |  |  |  |  |  |  | half-life (in vitro; human plasma, 37° C., read-out: t1/2 (converted)): 88.8 h; assay [%] ([4]; 0 months, uncontrolled): 98.1%; assay [%] ([4]; 3 weeks, 25° C./60% relative humidity): 98.0%; assay [%] ([4]; 3 weeks, 40° C./75% relative humidity): 95.9%; assay [%] ([4]; 7 months, 25° C./60% relative humidity): 91.9%; assay [%] ([4]; 7 months, 40° C./75% relative humidity): 80.4% |
| CCOC(=O)OC(C)OC(=O)[C@@H]1CCCN2CCCC(N[C@@H](CCc3ccccc3)C(=O)OCC)C(=O)N12 (stereo partly drawn) [compound 1, (1S,9S)-1-(ethoxycarbonyloxy)ethyl 9-[[(1S)-1-ethoxycarbonyl-3-phenylpropyl]amino]-10-oxooctahydro-1H-pyridazino[1,2-a][1,2]diazepine-1-carboxylate] | formation of cilazaprilate as the final metabolite | 99.3% | 98.0% | 0.43 h | 0.67 h | fast reaction kinetics | fast degradation | increase in in vitro skin flux | 154 h | 0.58 h | none of the TTS showed crystallization |  |
| CCOC(=O)[C@H](CCc1ccccc1)NC1CCCN2CCC[C@@H](C(=O)OC(C)OC(=O)OC3CCCCC3)N2C1=O (stereo partly drawn) [compound 2, (1S,9S)-1-(cyclohexyloxycarbonyloxy)ethyl 9-[[(1S)-1-ethoxycarbonyl-3-phenylpropyl]amino]-10-oxooctahydro-1H-pyridazino[1,2-a][1,2]diazepine-1-carboxylate] | formation of cilazaprilate as the final metabolite | 100.0% | 98.3% | 1.4 h | 4.2 h | fast reaction kinetics | fast degradation | increase in in vitro skin flux | 228 h | 3.2 h | none of the TTS showed crystallization |  |
| CCOC(=O)[C@H](CCc1ccccc1)NC1CCCN2CCC[C@@H](C(=O)OC(C)OC(=O)OC(C)C)N2C1=O (stereo partly drawn) [compound 3, (1S,9S)-1-(isopropyloxycarbonyloxy)ethyl 9-[[(1S)-1-ethoxycarbonyl-3-phenylpropyl]amino]-10-oxooctahydro-1H-pyridazino[1,2-a][1,2]diazepine-1-carboxylate] | formation of cilazaprilate as the final metabolite |  |  | 1 h | 1.5 h |  | fast degradation |  | 108 h | 1.9 h |  |  |
| CCOC(=O)[C@H](CCc1ccccc1)NC1CCCN2CCC[C@@H](C(=O)OC(C)OC(C)=O)N2C1=O (stereo partly drawn) [compound 4, (1S,9S)-1-(acetoxy)ethyl 9-[[(1S)-1-ethoxycarbonyl-3-phenylpropyl]amino]-10-oxooctahydro-1H-pyridazino[1,2-a][1,2]diazepine-1-carboxylate] | formation of cilazaprilate as the final metabolite |  |  | 0.5 h | 0.63 h |  | fast degradation |  | 91.2 h | 0.68 h |  |  |
| CCOC(=O)[C@H](CCc1ccccc1)NC1CCCN2CCC[C@@H](C(=O)OC(C)OC(=O)C(C)(C)C)N2C1=O (stereo partly drawn) [compound 5, (1S,9S)-1-(2,2-dimethylpropanoyloxy)ethyl 9-[[(1S)-1-ethoxycarbonyl-3-phenylpropyl]amino]-10-oxooctahydro-1H-pyridazino[1,2-a][1,2]diazepine-1-carboxylate] | formation of cilazaprilate as the final metabolite |  |  | 1 h | 3.8 h |  | fast degradation |  | 33.6 h | 5.1 h |  |  |
| CCOC(=O)[C@H](CCc1ccccc1)N[C@H]1CCCN2CCC[C@@H](C(=O)OCCN3CCOCC3)N2C1=O [compound 6, (1S,9S)-2-morpholinoethyl 9-[[(1S)-1-ethoxycarbonyl-3-phenylpropyl]amino]-10-oxooctahydro-1H-pyridazino[1,2-a][1,2]diazepine-1-carboxylate] |  | 98.1% | 94.7% | 0.5 h | 0.95 h | fast reaction kinetics | fast reaction kinetics | increase in in vitro skin flux | 10.8 h | 1.3 h | none of the TTS showed crystallization |  |
| CCOC(=O)[C@H](CCc1ccccc1)NC1CCCN2CCC[C@@H](C(=O)OC(C)OC(=O)CN3CCOCC3)N2C1=O (stereo partly drawn) [compound 7, (1S,9S)-1-(2-morpholinoacetoxy)ethyl 9-[[(1S)-1-ethoxycarbonyl-3-phenylpropyl]amino]-10-oxooctahydro-1H-pyridazino[1,2-a][1,2]diazepine-1-carboxylate] |  |  |  | 0.33 h | 0.77 h |  | fast reaction kinetics |  | 132 h | 0.83 h |  |  |
